Reference: ChEMBL document CHEMBL1140940, “Pyrido[2,3-d]pyrimidin-5-ones: a novel class of antiinflammatory macrophage colony-stimulating factor-1 receptor inhibitors” (J Med Chem, 2009)

Columns and labels:
[1] = biological target: Macrophage colony-stimulating factor 1 receptor (Homo sapiens, UniProt P07333)
[2] = Metabolic stability in rat liver microsomes after 10 mins; assay type: ADME, Microsome; conditions: read-out: Stability
[3] = Metabolic stability in human liver microsomes after 10 mins; assay type: ADME, Microsome; conditions: read-out: Stability
[4] = Cmax in Sprague-Dawley rat at 10 mg/kg, po; assay type: ADME, organism-based; design: dose 10 mg/kg, route oral; conditions: in vivo
[5] = Half life in Sprague-Dawley rat at 10 mg/kg, po; assay type: ADME, organism-based; design: dose 10 mg/kg, route oral; conditions: in vivo
[6] = Half life in Sprague-Dawley rat at 2 mg/kg, iv; assay type: ADME, organism-based; design: dose 2 mg/kg, route intravenous; conditions: in vivo
[7] = Clearance in Sprague-Dawley rat at 2 mg/kg, iv; assay type: ADME, organism-based; design: dose 2 mg/kg, route intravenous; conditions: in vivo
[8] = Volume of distribution at steady state in Sprague-Dawley rat at 2 mg/kg, iv; assay type: ADME, organism-based; design: dose 2 mg/kg, route intravenous; conditions: in vivo, read-out: Vdss
[9] = Oral bioavailability in Sprague-Dawley rat at 10 mg/kg; assay type: ADME, organism-based; conditions: in vivo
[10] = biological target: T1, Receptor-type tyrosine-protein kinase FLT3 (Homo sapiens, UniProt P36888); assay: Inhibition of FLT3 by fluorescence polarization competition immunoassay
T1 sequence (P36888 whole entry): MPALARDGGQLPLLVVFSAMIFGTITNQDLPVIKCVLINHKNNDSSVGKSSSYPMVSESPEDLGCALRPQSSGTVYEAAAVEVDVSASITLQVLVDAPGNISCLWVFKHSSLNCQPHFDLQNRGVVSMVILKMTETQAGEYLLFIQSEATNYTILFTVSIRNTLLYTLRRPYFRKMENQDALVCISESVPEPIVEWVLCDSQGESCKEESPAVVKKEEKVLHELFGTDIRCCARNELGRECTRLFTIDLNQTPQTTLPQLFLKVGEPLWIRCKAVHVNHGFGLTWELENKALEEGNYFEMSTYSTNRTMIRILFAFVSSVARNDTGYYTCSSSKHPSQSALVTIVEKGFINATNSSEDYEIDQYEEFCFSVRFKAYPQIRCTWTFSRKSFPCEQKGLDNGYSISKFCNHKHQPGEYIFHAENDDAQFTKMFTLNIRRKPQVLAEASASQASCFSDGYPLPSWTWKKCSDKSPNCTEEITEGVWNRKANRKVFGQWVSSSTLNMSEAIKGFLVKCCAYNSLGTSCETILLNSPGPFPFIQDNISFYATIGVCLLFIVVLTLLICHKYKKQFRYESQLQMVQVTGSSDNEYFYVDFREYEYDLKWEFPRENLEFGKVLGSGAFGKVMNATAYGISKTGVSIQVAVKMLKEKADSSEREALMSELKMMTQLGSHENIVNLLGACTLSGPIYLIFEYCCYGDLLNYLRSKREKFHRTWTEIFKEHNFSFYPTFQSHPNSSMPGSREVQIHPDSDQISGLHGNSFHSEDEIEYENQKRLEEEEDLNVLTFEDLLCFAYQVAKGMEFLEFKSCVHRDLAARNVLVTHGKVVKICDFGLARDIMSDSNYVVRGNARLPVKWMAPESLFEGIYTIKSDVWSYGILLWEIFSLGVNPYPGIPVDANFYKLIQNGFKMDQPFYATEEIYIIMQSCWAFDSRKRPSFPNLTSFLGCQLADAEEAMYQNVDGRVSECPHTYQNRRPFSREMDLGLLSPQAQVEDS

[11] = biological target: Mast/stem cell growth factor receptor Kit (Homo sapiens, UniProt P10721); assay: Inhibition of KIT by fluorescence polarization competition immunoassay
[12] = biological target: Platelet-derived growth factor receptor beta (Homo sapiens, UniProt P09619); assay: Inhibition of PDGFRbeta by fluorescence polarization competition immunoassay
Sequence of Platelet-derived growth factor receptor beta (P09619 whole entry): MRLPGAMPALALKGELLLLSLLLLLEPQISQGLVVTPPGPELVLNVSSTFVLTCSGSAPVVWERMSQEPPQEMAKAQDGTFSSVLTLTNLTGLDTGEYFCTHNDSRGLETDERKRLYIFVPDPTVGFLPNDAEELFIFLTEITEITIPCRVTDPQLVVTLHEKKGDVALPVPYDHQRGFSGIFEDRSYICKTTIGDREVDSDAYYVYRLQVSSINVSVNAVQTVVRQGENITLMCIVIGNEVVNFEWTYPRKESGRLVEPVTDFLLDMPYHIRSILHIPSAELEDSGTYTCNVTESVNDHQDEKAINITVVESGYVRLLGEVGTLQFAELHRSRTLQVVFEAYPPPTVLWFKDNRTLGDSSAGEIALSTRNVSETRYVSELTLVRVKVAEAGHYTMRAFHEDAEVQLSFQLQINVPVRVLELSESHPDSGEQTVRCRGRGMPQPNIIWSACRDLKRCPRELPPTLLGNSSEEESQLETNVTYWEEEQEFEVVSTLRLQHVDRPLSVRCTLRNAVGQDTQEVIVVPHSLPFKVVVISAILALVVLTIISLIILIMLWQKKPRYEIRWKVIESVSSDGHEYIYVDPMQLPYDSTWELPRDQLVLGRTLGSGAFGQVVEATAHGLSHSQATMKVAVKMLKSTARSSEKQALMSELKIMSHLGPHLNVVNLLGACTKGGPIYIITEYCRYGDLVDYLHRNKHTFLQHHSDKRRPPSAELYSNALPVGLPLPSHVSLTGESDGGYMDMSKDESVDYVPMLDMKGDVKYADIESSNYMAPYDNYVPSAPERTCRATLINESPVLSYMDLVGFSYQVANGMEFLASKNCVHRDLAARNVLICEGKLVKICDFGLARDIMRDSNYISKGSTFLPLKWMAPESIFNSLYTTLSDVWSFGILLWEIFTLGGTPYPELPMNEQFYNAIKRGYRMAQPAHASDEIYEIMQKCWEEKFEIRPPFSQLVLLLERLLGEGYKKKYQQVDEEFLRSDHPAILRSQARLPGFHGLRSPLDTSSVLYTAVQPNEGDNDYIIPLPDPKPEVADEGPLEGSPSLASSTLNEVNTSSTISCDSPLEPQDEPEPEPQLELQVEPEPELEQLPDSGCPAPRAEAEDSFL

[13] = biological target: T2, Tyrosine-protein kinase receptor UFO (Homo sapiens, UniProt P30530); assay: Inhibition of Axl by fluorescence polarization competition immunoassay
T2 sequence (P30530 whole entry): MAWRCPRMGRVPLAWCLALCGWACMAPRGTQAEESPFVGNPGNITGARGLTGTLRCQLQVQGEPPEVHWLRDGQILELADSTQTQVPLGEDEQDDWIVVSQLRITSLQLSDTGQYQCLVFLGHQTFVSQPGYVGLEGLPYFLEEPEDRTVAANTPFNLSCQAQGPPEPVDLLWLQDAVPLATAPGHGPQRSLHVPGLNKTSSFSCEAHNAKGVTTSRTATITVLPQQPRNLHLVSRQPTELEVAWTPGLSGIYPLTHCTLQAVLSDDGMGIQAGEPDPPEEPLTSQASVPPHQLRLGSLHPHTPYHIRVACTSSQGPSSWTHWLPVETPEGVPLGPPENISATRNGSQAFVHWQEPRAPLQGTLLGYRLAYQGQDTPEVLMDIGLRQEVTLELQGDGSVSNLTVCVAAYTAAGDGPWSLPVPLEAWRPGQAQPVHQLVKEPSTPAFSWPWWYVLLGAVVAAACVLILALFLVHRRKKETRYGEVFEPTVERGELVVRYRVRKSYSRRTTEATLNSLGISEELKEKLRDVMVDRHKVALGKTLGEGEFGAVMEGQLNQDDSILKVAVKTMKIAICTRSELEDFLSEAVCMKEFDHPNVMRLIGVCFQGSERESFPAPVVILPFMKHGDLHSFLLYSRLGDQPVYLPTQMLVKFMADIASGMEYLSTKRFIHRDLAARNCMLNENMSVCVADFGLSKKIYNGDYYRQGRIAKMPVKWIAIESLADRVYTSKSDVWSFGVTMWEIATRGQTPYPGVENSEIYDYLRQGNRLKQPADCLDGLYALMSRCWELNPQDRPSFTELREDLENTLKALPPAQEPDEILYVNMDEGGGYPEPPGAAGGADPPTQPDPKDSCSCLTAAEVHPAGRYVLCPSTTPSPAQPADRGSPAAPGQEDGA

[14] = biological target: High affinity nerve growth factor receptor (Homo sapiens, UniProt P04629); assay: Inhibition of TrkA by fluorescence polarization competition immunoassay
Sequence of High affinity nerve growth factor receptor (P04629 whole entry): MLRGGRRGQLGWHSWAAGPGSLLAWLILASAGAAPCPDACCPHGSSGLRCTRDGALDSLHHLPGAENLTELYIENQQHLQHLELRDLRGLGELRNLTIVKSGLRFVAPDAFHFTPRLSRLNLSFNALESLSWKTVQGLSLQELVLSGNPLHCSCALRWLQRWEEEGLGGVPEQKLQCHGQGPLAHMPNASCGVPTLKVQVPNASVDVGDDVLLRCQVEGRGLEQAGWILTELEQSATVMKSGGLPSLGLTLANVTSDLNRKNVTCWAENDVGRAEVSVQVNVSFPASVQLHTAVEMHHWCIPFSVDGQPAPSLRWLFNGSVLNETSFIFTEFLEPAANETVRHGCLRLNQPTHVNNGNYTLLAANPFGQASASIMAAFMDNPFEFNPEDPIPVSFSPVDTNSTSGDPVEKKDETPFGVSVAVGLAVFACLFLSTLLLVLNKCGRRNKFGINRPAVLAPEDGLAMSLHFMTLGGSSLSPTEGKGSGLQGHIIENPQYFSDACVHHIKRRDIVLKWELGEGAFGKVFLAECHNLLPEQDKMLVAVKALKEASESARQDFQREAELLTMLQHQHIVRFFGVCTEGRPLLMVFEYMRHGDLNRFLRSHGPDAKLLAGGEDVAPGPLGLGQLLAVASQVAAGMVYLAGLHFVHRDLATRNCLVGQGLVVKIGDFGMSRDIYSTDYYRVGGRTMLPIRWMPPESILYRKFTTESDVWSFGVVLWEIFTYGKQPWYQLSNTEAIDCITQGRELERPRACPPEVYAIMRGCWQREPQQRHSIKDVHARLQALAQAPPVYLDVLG

[15] = biological target: Insulin receptor (Homo sapiens, UniProt P06213); assay: Inhibition of IRKbeta by fluorescence polarization competition immunoassay
Sequence of Insulin receptor (P06213 28-758 limits assumed): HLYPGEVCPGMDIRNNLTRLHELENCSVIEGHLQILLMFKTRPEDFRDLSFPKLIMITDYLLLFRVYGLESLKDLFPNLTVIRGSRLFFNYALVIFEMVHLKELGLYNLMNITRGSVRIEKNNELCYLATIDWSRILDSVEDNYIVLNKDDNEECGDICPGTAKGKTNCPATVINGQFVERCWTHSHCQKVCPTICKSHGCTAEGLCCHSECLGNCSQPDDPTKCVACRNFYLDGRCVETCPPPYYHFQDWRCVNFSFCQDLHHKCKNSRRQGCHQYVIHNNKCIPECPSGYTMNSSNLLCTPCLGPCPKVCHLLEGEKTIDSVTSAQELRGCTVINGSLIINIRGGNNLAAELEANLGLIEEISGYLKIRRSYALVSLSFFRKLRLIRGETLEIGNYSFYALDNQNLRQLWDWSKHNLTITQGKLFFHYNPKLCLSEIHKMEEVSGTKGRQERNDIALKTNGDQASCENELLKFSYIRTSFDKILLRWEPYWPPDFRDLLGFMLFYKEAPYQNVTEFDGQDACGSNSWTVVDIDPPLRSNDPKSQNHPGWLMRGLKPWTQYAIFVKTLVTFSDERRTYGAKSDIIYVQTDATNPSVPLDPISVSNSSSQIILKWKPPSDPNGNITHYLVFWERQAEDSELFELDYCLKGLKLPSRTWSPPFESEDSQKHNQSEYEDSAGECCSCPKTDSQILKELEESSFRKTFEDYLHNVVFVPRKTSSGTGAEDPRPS
Sequence of Insulin receptor (P06213 763-1382 limits assumed): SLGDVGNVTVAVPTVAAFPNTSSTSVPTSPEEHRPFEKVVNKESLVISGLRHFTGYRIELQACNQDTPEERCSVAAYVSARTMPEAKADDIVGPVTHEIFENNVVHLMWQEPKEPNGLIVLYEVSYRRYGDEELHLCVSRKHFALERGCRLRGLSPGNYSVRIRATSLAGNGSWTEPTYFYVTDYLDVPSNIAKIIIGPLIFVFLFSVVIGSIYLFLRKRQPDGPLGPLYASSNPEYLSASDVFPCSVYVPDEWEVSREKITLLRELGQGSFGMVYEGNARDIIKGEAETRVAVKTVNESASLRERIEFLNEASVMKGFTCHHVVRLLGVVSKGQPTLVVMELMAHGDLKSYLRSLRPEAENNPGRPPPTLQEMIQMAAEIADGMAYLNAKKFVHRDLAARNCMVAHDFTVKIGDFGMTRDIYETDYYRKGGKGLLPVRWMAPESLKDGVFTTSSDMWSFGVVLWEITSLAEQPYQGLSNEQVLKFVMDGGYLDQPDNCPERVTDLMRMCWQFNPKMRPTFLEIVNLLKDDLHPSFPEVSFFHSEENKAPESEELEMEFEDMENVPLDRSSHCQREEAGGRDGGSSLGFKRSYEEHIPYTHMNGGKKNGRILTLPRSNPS

[16] = biological target: Proto-oncogene tyrosine-protein kinase Src (Homo sapiens, UniProt P12931); assay: Inhibition of Src by fluorescence polarization competition immunoassay
Sequence of Proto-oncogene tyrosine-protein kinase Src (P12931 2-536 limits assumed): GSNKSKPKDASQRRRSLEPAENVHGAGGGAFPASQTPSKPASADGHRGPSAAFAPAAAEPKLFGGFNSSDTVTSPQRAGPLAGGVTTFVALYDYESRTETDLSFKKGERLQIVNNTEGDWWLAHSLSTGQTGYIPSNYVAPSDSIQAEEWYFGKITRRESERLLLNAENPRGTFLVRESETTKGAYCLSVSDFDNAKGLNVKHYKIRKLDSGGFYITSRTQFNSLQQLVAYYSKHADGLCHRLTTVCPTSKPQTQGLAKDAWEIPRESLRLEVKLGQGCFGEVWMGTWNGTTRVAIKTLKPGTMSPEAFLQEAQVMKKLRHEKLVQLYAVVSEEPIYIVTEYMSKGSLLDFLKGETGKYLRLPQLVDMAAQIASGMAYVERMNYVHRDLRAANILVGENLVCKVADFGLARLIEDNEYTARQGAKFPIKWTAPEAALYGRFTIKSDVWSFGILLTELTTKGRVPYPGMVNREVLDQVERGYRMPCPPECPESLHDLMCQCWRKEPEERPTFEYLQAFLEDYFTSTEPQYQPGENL

Sequence of Macrophage colony-stimulating factor 1 receptor (P07333 whole entry): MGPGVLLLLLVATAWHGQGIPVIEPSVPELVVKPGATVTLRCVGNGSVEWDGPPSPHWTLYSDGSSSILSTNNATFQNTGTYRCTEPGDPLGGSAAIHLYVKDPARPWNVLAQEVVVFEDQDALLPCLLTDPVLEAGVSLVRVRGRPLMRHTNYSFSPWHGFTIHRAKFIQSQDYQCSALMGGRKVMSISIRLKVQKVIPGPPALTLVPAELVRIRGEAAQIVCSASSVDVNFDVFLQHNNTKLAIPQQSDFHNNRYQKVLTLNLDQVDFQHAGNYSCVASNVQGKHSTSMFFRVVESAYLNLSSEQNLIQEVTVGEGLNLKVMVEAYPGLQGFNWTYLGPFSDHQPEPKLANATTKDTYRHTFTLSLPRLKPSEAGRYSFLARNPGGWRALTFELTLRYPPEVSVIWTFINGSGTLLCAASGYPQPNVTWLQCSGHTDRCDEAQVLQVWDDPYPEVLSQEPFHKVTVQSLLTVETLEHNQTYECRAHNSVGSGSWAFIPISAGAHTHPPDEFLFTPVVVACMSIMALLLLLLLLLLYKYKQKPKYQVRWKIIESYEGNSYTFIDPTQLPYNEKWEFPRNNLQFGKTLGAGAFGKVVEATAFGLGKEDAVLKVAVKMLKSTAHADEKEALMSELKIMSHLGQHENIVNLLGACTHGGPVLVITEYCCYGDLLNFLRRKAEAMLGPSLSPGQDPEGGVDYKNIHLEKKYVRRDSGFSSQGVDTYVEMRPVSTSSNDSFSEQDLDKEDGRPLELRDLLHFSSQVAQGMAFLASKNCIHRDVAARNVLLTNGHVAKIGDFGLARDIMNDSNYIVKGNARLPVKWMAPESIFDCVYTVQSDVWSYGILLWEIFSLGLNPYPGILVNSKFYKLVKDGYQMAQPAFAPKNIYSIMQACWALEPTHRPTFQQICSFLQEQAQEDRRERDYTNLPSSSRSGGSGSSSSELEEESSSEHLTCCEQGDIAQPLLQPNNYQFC

CONC(=O)c1cn(-c2ccc3c(c2)CCC3)c2nc(NCc3ccccc3)ncc2c1=O
IC50 [1]: 75 nM

CONC(=O)c1cn(-c2ccc3c(c2)CCC3)c2nc(Nc3ccc(C4CCNCC4)cc3)ncc2c1=O
remaining at 10 min [2]: 93% | remaining at 10 min [3]: 97% | IC50 [1]: 0.5 nM

CCONC(=O)c1cn(-c2ccc3c(c2)CCC3)c2nc(Nc3ccc(CCN4CCN(C)CC4)cc3)ncc2c1=O
remaining at 10 min [2]: 84%

CN1CCN(CCc2ccc(Nc3ncc4c(=O)c(C(=O)NCCO)cn(-c5ccc6c(c5)CCC6)c4n3)cc2)CC1
remaining at 10 min [2]: 84% | IC50 [1]: 0.7 nM

CONC(=O)c1cn(-c2ccc3c(c2)CCC3)c2nc(Nc3ccc(CCN4CCNC(=O)C4)cc3)ncc2c1=O
remaining at 10 min [2]: 69% | Cmax [4]: 80 nM | half-life [5]: 9.7 h | half-life [6]: 6 h | clearance [7]: 10 mL/min/kg | Vd [8]: 0.8 L/kg | bioavailability [9]: 3% | remaining at 10 min [3]: 35%

CN1CCN(c2ccc(Nc3ncc4c(=O)c(C(N)=O)cn(-c5ccc6c(c5)CCC6)c4n3)cc2)CC1
bioavailability [9]: 0%

CN1CCN(CCc2ccc(Nc3ncc4c(=O)c(C(N)=O)cn(-c5ccc6c(c5)CCC6)c4n3)cc2)CC1
IC50 [10]: 1 nM | IC50 [11]: 20 nM | IC50 [12]: > 42000 nM | IC50 [13]: > 500 nM | IC50 [14]: 170 nM | IC50 [15]: > 42000 nM | IC50 [16]: 5900 nM | remaining at 10 min [2]: 96% | half-life [6]: 7 h | clearance [7]: 25 mL/min/kg | Vd [8]: 15.5 L/kg | bioavailability [9]: 0%

CONC(=O)c1cn(-c2ccc3c(c2)CCC3)c2nc(Nc3ccc(C4CCN(C)CC4(F)F)cc3)ncc2c1=O (stereo not drawn)
remaining at 10 min [2]: 44% | remaining at 10 min [3]: 16% | IC50 [1]: 0.7 nM

CONC(=O)c1cn(-c2ccc3c(c2)CCC3)c2nc(Nc3ccc(CCN4CCC(F)(F)CC4)cc3)ncc2c1=O
remaining at 10 min [2]: 86% | remaining at 10 min [3]: 83%

CCN1CCCC(O)(c2cccc(Nc3ncc4c(=O)c(C(=O)NOC)cn(-c5ccc6c(c5)CCC6)c4n3)c2)C1 (stereo not drawn)
remaining at 10 min [2]: 89% | Cmax [4]: 400 nM | half-life [6]: 5.2 h | clearance [7]: 20.4 mL/min/kg | Vd [8]: 5.6 L/kg | bioavailability [9]: 28% | remaining at 10 min [3]: 88%

CONC(=O)c1cn(-c2ccc3c(c2)CCC3)c2nc(Nc3ccc(C4CCN(CCO)CC4)cc3)ncc2c1=O
remaining at 10 min [2]: 100% | Cmax [4]: 130 nM | half-life [6]: 3 h | clearance [7]: 34 mL/min/kg | Vd [8]: 8.8 L/kg | bioavailability [9]: 8% | remaining at 10 min [3]: 80%

CONC(=O)c1cn(-c2ccc3c(c2)CCC3)c2nc(Nc3ccc(CCN4CCN(C)C(=O)C4)cc3)ncc2c1=O
remaining at 10 min [2]: 29% | remaining at 10 min [3]: 2.8% | IC50 [1]: 0.8 nM

CONC(=O)c1cn(-c2ccc3c(c2)CCC3)c2nc(Nc3ccc(C4CCN(CC(=O)O)CC4)cc3)ncc2c1=O
IC50 [10]: 41 nM | IC50 [11]: 13 nM | IC50 [12]: > 2000 nM | IC50 [13]: > 500 nM | IC50 [14]: > 500 nM | IC50 [15]: 9300 nM | IC50 [16]: 930 nM | remaining at 10 min [2]: 99% | half-life [6]: 1.7 h | clearance [7]: 38 mL/min/kg | Vd [8]: 5.1 L/kg | bioavailability [9]: 0% | remaining at 10 min [3]: 100%

CONC(=O)c1cn(-c2ccc3c(c2)CCC3)c2nc(Nc3ccc(CCS(=O)(=O)NC(C)=O)cc3)ncc2c1=O
remaining at 10 min [2]: 83% | remaining at 10 min [3]: 84%

CONC(=O)c1cn(C2CCC(C)(C)CC2)c2nc(Nc3ccc(C4CCN(C)CC4)cc3)ncc2c1=O
remaining at 10 min [2]: 97% | remaining at 10 min [3]: 93%

CCCCNc1ncc2c(=O)c(C(=O)NOC)cn(-c3ccc4c(c3)CCC4)c2n1
IC50 [1]: 15 nM

CONC(=O)c1cn(-c2ccc3c(c2)CCC3)c2nc(Nc3ccc(OC)nc3)ncc2c1=O
IC50 [1]: 5.2 nM

CCc1cccc(-n2cc(C(=O)NOC)c(=O)c3cnc(Nc4ccc(C5CCN(C)CC5)cc4)nc32)c1
IC50 [1]: 0.4 nM

CNC(=O)c1cn(-c2ccc3c(c2)CCC3)c2nc(Nc3ccc(CCN4CCOCC4)cc3)ncc2c1=O
remaining at 10 min [2]: 100% | Cmax [4]: 130 nM | half-life [5]: 1.8 h | half-life [6]: 0.7 h | clearance [7]: 47 mL/min/kg | Vd [8]: 2.6 L/kg | bioavailability [9]: 4% | IC50 [1]: 1.4 nM

CONC(=O)c1cn(C2CCCCC2)c2nc(Nc3ccc(C4CCN(C)CC4)cc3)ncc2c1=O
remaining at 10 min [2]: 68% | remaining at 10 min [3]: 96% | IC50 [1]: 5 nM

CC(C)ONC(=O)c1cn(-c2ccc3c(c2)CCC3)c2nc(Nc3ccc(CCN4CCN(C)CC4)cc3)ncc2c1=O
remaining at 10 min [2]: 100% | IC50 [1]: 0.5 nM

CONC(=O)c1cn(-c2ccc3c(c2)CCC3)c2nc(Nc3ccc(CCN4CCOCC4)cc3)ncc2c1=O
remaining at 10 min [2]: 24% | remaining at 10 min [3]: 5.4%

CCNC(=O)c1cn(-c2ccc3c(c2)CCC3)c2nc(Nc3ccc(CCN4CCN(C)CC4)cc3)ncc2c1=O
IC50 [1]: 3.2 nM

CNC(=O)c1cn(-c2ccc3c(c2)CCC3)c2nc(Nc3ccc(CCN4CCN(C)CC4)cc3)ncc2c1=O
remaining at 10 min [2]: 73% | IC50 [1]: 1.2 nM
